According to patent US20060009493A1, “Indolinone hydrazides as c-Met inhibitors” (Sugen, Inc., priority 2003, published 2006):
Values joined by “and” are separate entries in the source; they are usually repeats but may differ in a detail not shown here. Identical values can stand only once.

What follows are compounds tested against T1, GST fusion protein containing the Met kinase domain (Homo sapiens, UniProt P08581) (assay: MET Transphosphorylation Assay (ELISA, poly(Glu,Tyr) 4:1 substrate)). Details: met transphosphorylation of poly(glutamic acid:tyrosine 4:1) substrate; two values in a cell separated by '/'.
T1 construct: Purified GST fusion protein containing the Met kinase domain, Sugen, Inc
Assay type: biochemical
Experimental: MET Transphosphorylation Assay
This assay is used to measure phosphotyrosine levels on a poly(glutamic acid:tyrosine (4:1)) substrate as a means for identifying agonists/antagonists of met transphosphorylation of the substrate.
• 1. […] PBS, Gibco Catalog # 450-1300EB • 4. 50 mM HEPES • 5. […] Purified GST fusion protein containing the Met kinase domain, Sugen, Inc. • 7. TBST Buffer. • 8. 10% aqueous (MilliQue H2O) DMSO. • 9. […] 2× Kinase Dilution Buffer: for 100 ml, mix 10 mL 1M HEPES at pH 7.5 with 0.4 mL 5% BSA/PBS, 0.2 mL 0.1 M sodium orthovanadate and 1 mL 5M sodium chloride in 88.4 mL dH2O. • 11. 4×ATP Reaction Mixture: for 10 mL, mix 0.4 mL 1 M manganese chloride and 0.02 mL 0.1 M ATP in […] dH2O. • 12. 4× Negative Controls Mixture: for 10 mL, mix 0.4 mL 1 M manganese chloride in 9.6 mL dH2O.
13. […] 500 mM EDTA. • 15. Antibody Dilution Buffer: for 100 mL, mix 10 mL 5% BSA/PBS, 0.5 mL 5% Carnation Instant Milk® in PBS and 0.1 mL 0.1 M sodium orthovanadate in 88.4 mL TBST. • 16. Rabbit polyclonal antophosphotyrosine antibody, Sugen, Inc. • 17. Goat anti-rabbit horseradish peroxidase conjugated antibody, Biosource, Inc. • 18. ABTS Solution: for 1 L, mix 19.21 g citric acid, 35.49 g Na2HPO4 and 500 mg ABTS with sufficient dH2O to make 1 L. • 19. ABTS/H2O2: mix 15 mL ABST solution with 2 μL H2O2 five minutes before use. • 20. 0.2 M HCl Procedure: • 1. Coat ELISA plates with 2 μg Poly(Glu-Tyr) in 100 μL PBS, store overnight at 4° C. • 2. Block plate with 150 μL of 5% BSA/PBS for 60 min. • 3. Wash plate twice with PBS, once with 50 mM Hepes buffer pH 7.4. • 4. Add 50 μl of the diluted kinase to all wells. (Purified kinase is diluted with Kinase Dilution Buffer. Final concentration should be 10 ng/well.) • 5. Add 25 μL of the test compound (in 4% DMSO) or DMSO alone (4% in dH2O) for controls to plate. • 6. Incubate the kinase/compound mixture for 15 minutes. • 7. Add 25 μL of 40 mM MnCl2 to the negative control wells. • 8. Add 25 μL ATP/MnCl2 mixture to the all other wells (except the negative controls). Incubate for 5 min. • 9. Add 25 μL 500 mM EDTA to stop reaction. • 10. Wash plate 3× with TBST. • 11. Add 100 μL rabbit polyclonal anti-Ptyr diluted 1:10,000 in Antibody Dilution Buffer to each well. Incubate, with shaking, at room temperature for one hour. • 12. Wash plate 3× with TBST. • 13. […] Add 100 μL per well and incubate at room temperature, with shaking, for one hour. • 14. Wash plate 1× with PBS. • 15. Add 100 μl of ABTS/H2O2 solution to each well. • 16. If necessary, stop the development reaction with the addition of […] of 0.2M HCl per well. • 17.

T1 sequence (P08581 1078-1345 limits assumed): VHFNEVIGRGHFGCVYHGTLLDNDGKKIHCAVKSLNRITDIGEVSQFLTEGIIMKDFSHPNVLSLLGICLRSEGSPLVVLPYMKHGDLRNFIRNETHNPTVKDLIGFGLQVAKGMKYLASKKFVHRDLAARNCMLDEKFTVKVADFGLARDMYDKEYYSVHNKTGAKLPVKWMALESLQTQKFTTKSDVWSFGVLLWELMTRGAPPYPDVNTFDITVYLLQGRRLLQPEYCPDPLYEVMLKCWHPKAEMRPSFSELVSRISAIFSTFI

| SMILES | IC50 |
| --- | --- |
| O=C(Cc1ccc(OCCN2CCCC2)cc1)N/N=C1\C(=O)Nc2ccccc21 [Example I-1] | 10400 nM |
| O=C1Nc2ccccc2/C1=N/NC(=O)C(O)c1ccc(O)cc1 (stereo not shown) [Example I-3, Hydroxy-(4-hydroxy-phenyl)-acetic acid [(3Z)-2-oxo-1,2-dihydro-indol-3-ylidene]-hydrazide] | 10700 nM |
| CC(=O)Nc1ccc(CC(=O)N/N=C2\C(=O)Nc3ccccc32)cc1 [Example I-4, N-[4-[(3Z)-2-Oxo-1,2-dihydro-indol-3-ylidene-hydrazinocarbonylmethyl]-phenyl]-acetamide] | > 20000 nM |
| O=C1Nc2ccccc2/C1=N/NC(=O)C1(c2ccccc2)CC1 [Example I-6, 1-Phenyl-cyclopropanecarboxylic acid [(3Z)-2-oxo-1,2-dihydro-indol-3-ylidene]-hydrazide] | > 20000 nM |
| O=C(Cc1ccc(O)cc1)N/N=C1\C(=O)Nc2ccc(S(=O)(=O)Cc3c(Cl)cccc3Cl)cc21 [Example I-8, (4-Hydroxy-phenyl)-acetic acid [(3Z)-5-(2,6-dichloro-phenylmethanesulfonyl)-2-oxo-1,2-dihydro-indol-3-ylidene]-hydrazide] | 7 nM |
| CS(=O)(=O)c1ccc2c(c1)/C(=N/NC(=O)Cc1ccc(O)cc1)C(=O)N2 [Example I-9, (4-Hydroxy-phenyl)-acetic acid [(3Z)-5-methanesulfonyl-2-oxo-1,2-dihydro-indol-3-ylidene]-hydrazide] | < 9.1 nM and 22 nM |
| COC(=O)c1ccc2c(c1)/C(=N/NC(=O)Cc1ccc(O)cc1)C(=O)N2 [Example I-11, (3Z)-3-{[2-(4-Hydroxy-phenyl)-acetyl]-hydrazono}-(3Z)-2-oxo-2,3-dihydro-1H-indole-5-carboxylic acid methyl ester] | 43 nM |
| CN1CCN(C(=O)c2ccc3c(c2)/C(=N/NC(=O)Cc2ccc(O)cc2)C(=O)N3)CC1 [Example I-12, (4-Hydroxy-phenyl)-acetic acid [(3Z)-5-(4-methyl-piperazine-1-carbonyl)-2-oxo-1,2-dihydro-indol-3-ylidene]-hydrazide] | 78 nM |
| O=C(Cc1ccc(O)cc1)N/N=C1\C(=O)Nc2cccc(-c3cccc(F)c3)c21 [Example I-14, (4-Hydroxy-phenyl)-acetic acid [(3Z)-4-(3-fluoro-phenyl)-2-oxo-1,2-dihydro-indol-3-ylidene]-hydrazide] | 500 nM |
| CC(C(=O)N/N=C1\C(=O)Nc2cccc(-c3cccc(F)c3)c21)c1ccc(O)cc1 (stereo not shown) [Example I-16, 2-(4-Hydroxy-phenyl)-propionic acid [(3Z)-4-(3-fluoro-phenyl)-2-oxo-1,2-dihydro-indol-3-ylidene]-hydrazide] | 140 nM |
| O=C(Cc1ccc(O)cc1)N/N=C1\C(=O)Nc2ccc(OC(F)(F)F)cc21 [Example I-17, (4-Hydroxy-phenyl)-acetic acid [(3Z)-2-oxo-5-trifluoromethoxy-1,2-dihydro-indol-3-ylidene]-hydrazide] | 58 nM |
| CSc1ccc(CC(=O)N/N=C2\C(=O)Nc3ccccc32)cc1 [Example I-19, (4-Methylsulfanyl-phenyl)-acetic acid [(3Z]-2-oxo-1,2-dihydro-indol-3-ylidene]-hydrazide] | > 20000 nM |
| O=C(Cc1ccc(F)cc1)N/N=C1\C(=O)Nc2ccc(C(=O)N3CCC(NC4CC4)CC3)c(Cl)c21 [Example I-20, (4-Fluoro-phenyl)-acetic acid [(3Z)-4-chloro-5-(4-cyclopropylamino-piperidine-1-carbonyl)-2-oxo-1,2-dihydro-indol-3-ylidene]-hydrazide] | 430 nM |
| CS(=O)(=O)c1ccc(CC(=O)N/N=C2\C(=O)Nc3ccccc32)cc1 [Example I-21, (4-Methanesulfonyl-phenyl)-acetic acid [(3Z)-2-oxo-1,2-dihydro-indol-3-ylidene]-hydrazide] | > 20000 nM |
| O=C(Cc1ccc2c(c1)OCO2)N/N=C1\C(=O)Nc2ccccc21 [Example I-23, Benzo[1,3]dioxol-5-yl-acetic acid [(3Z)-2-oxo-1,2-dihydro-indol-3-ylidene]-hydrazide] | 150 nM |
| O=C(Cc1ccc(O)cc1)N/N=C1\C(=O)Nc2ccc(S(=O)(=O)NCCN3CCOCC3)cc21 [Example I-26, (3Z)-3-{[2-(4-Hydroxy-phenyl)-acetyl]-hydrazono}-2-oxo-2,3-dihydro-1H-indole-5-sulfonic acid (2-morpholin-4-yl-ethyl)-amide] | 78 nM |

The next lines start with the values.

| IC50 | SMILES |
| --- | --- |
| > 20000 nM and 13600 nM | COC(C(=O)N/N=C1\C(=O)Nc2ccccc21)c1ccccc1 (stereo not shown) [Example I-5, Methoxy-phenyl-acetic acid [(3Z)-2-oxo-1,2-dihydro-indol-3-ylidene]-hydrazide] |
| > 20000 nM | O=C1Nc2ccccc2/C1=N/NC(=O)C(CO)c1ccccc1 (stereo not shown) [Example I-7, 3-Hydroxy-2-phenyl-propionic acid [(3Z)-2-oxo-1,2-dihydro-indol-3-ylidene]-hydrazide] |
| 900 nM | O=C(Cc1ccc(O)cc1)N/N=C1\C(=O)Nc2ccc(C(=O)O)cc21 [Example I-10, (3Z)-3-{[2-(4-Hydroxy-phenyl)-acetyl]-hydrazono}-(3Z)-2-oxo-2,3-dihydro-1H-indole-5-carboxylic acid] |
| 1060 nM | O=C(Cc1ccc(O)cc1)N/N=C1\C(=O)Nc2ccc(Br)c(-c3cccc(F)c3)c21 [Example I-13, (4-Hydroxy-phenyl)-acetic acid [(3Z)-5-bromo-4-(3-fluoro-phenyl)-2-oxo-1,2-dihydro-indol-3-ylidene]-hydrazide] |
| 890 nM | O=C(Cc1ccc(O)cc1)N/N=C1\C(=O)Nc2cccc(-c3ccc(F)cc3)c21 [Example I-15, (4-Hydroxy-phenyl)-acetic acid [(3Z)-4-(4-fluoro-phenyl)-2-oxo-1,2-dihydro-indol-3-ylidene]-hydrazide] |
| > 20000 nM | O=C(Cc1ccc(O)cc1)N/N=C1\C(=O)Nc2cccc(C3CCNCC3)c21 [Example I-18, (4-Hydroxy-phenyl)-acetic acid [(3Z)-2-oxo-4-piperidin-4-yl-1,2-dihydro-indol-3-ylidene]-hydrazide] |
| 250 nM | O=C(Cc1ccc2c(c1)OCO2)N/N=C1\C(=O)Nc2ccc(Br)cc21 [Example I-22, Benzo[1,3]dioxol-5-yl-acetic acid [(3Z)-5-bromo-2-oxo-1,2-dihydro-indol-3-ylidene]-hydrazide] |
| 110 nM | O=C(Cc1ccc2c(c1)OCO2)N/N=C1\C(=O)Nc2c(Cl)ccc(Cl)c21 [Example I-24, Benzo[1,3]dioxol-5-yl-acetic acid [(3Z)-4,7-dichloro-2-oxo-1,2-dihydro-indol-3-ylidene]-hydrazide] |
| 77 nM | CN1CCN(S(=O)(=O)c2ccc3c(c2)/C(=N/NC(=O)Cc2ccc(O)cc2)C(=O)N3)CC1 [Example I-25, (4-Hydroxy-phenyl)-acetic acid [(3Z)-5-(4-methyl-piperazine-1-sulfonyl)-2-oxo-1,2-dihydro-indol-3-ylidene]-hydrazide] |
| 390 nM | CC(C(=O)N/N=C1\C(=O)Nc2ccc(S(=O)(=O)NCCN3CCOCC3)cc21)c1ccc(O)cc1 (stereo not shown) [Example I-27, (3Z)-3-{[2-(4-Hydroxy-phenyl)-propionyl]-hydrazono}-2-oxo-2,3-dihydro-1H-indole-5-sulfonic acid (2-morpholin-4-yl-ethyl)-amide] |
| 24 nM | O=C(Cc1ccc(O)cc1)N/N=C1\C(=O)Nc2ccc(C(=O)N3CCC(NC4CC4)CC3)c(Cl)c21 [Example I-28, (4-Hydroxy-phenyl)-acetic acid [(3Z)-4-chloro-5-(4-cyclopropylamino-piperidine-1-carbonyl)-2-oxo-1,2-dihydro-indol-3-ylidene]-hydrazide] |
| 230 nM | CC(C(=O)N/N=C1\C(=O)Nc2ccc(C(=O)O)c(Cl)c21)c1ccc(F)cc1 (stereo not shown) [Example I-29, (3Z)-4-Chloro-3-{[2-(4-fluoro-phenyl)-propionyl]-hydrazono}-2-oxo-2,3-dihydro-1H-indole-5-carboxylic acid] |
